PubChem BioAssay (NCI)
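1) Cells in 96-well plates. 2) Compound, 48 h, 5 concentrations. 3) Linear interpolation between surrounding doses. 4) Unreached endpoint = highest concentration. GI50 = concentration required for 50% inhibition of growth. Definition used: TGI = concentration required for complete inhibition of growth.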 Where a SMILES comes first, the peptide text is derived from it. [ ]: non-standard residue; d: D form. ξ: configuration not given here. ξLac(3-iPr) = CC(C)CC(O)C(=O)O; NMeV = CN[CH](C(=O)O)C(C)C; NMeA = CN[CH](C)C(=O)O; βAla = NCCC(=O)O

Assays:
Experiment in all cases: NCI tumour cell line growth inhibition, 48 h
[1] = tested on: SK-OV-3 ovarian
[2] = tested on: OVCAR-8 ovarian
[3] = tested on: HT29 colon
[4] = tested on: SK-MEL-2 melanoma
[5] = tested on: OVCAR-3 ovarian
[6] = tested on: NCI-H23 lung
[7] = tested on: SN12C renal
[8] = tested on: K-562 leukemia
[9] = tested on: CCRF-CEM leukemia
[10] = tested on: MDA-N
[11] = tested on: UACC-257 melanoma
[12] = tested on: NCI-H460 lung

For O=C(c1ccccc1)C1C(c2ccccc2)N1S(=O)(=O)c1ccccc1 (configuration not stated), the TGI [1] was > 100 µM, the TGI [2] was > 100 µM and the TGI [3] was > 100 µM. For the same molecule, the TGI [4] was > 100 µM, the TGI [5] was > 100 µM and the TGI [6] was > 100 µM. The TGI [7] was > 100 µM, the TGI [8] was > 100 µM and the TGI [9] was > 100 µM. The TGI [10] was > 100 µM.
Molecule Cc1ccc2c(ccc(/C=C\c3cc(C)c4cccnc4c3O)[n+]2C)c1 has a TGI [2] of 24.1 µM, a TGI [5] of 12.9 µM and a TGI [11] of 28.4 µM. For the same molecule, the TGI [6] was 53.4 µM, the TGI [7] was 24.7 µM and the TGI [8] was > 100 µM. The TGI [12] was 18 µM and the TGI [9] was 26 µM.
In the case of COc1cc(C(=O)CC2OC(=O)C(Cl)=C2Cl)ccc1Cl (configuration not stated), the TGI [1] is reported as > 100 µM, the TGI [2] is reported as > 100 µM and the TGI [3] is reported as > 100 µM. For the same molecule, the TGI [4] was > 100 µM, the TGI [5] was > 100 µM and the TGI [11] was > 100 µM. For the same molecule, the TGI [6] was > 100 µM, the TGI [7] was > 100 µM and the TGI [8] was > 100 µM. The TGI [12] was > 100 µM and the TGI [9] was > 100 µM.
For C[N+](C)(C)c1cc2c(nn1)Nc1ccccc1S2, the TGI [1] was 72 µM, the TGI [2] was 77.9 µM and the TGI [3] was 42.5 µM. It also gave a TGI [4] of 37.1 µM, a TGI [5] of 54.8 µM and a TGI [11] of 62.6 µM. The TGI [6] was > 100 µM, the TGI [7] was > 100 µM and the TGI [8] was 68.9 µM. The TGI [12] was 48.8 µM, the TGI [9] was 41 µM and the TGI [10] was 50.3 µM.
Work on C[C@]12CC[C@@H]3c4ccc(O)cc4CC[C@H]3[C@@H]1CC[C@@H]2OC(=O)CCc1ccccc1 yielded a TGI [1] of 38.1 µM, a TGI [2] of 51 µM and a TGI [3] of 40.7 µM. For the same molecule, the TGI [4] was 30.8 µM, the TGI [5] was 61.6 µM and the TGI [11] was 35.2 µM. For the same molecule, the TGI [6] was 34.6 µM, the TGI [7] was 49.6 µM and the TGI [8] was 33.9 µM. For the same molecule, the TGI [12] was 42.6 µM, the TGI [9] was 67.5 µM and the TGI [10] was 52.9 µM.
CC1(C)N=C(N)N=C(N)N1c1cccc(C(=O)Nc2ccc(S(=O)(=O)F)cc2)c1 was tested, and the TGI [1] was > 100 µM, the TGI [2] was > 100 µM and the TGI [3] was > 100 µM. For the same molecule, the TGI [4] was > 100 µM, the TGI [5] was > 100 µM and the TGI [11] was > 100 µM. The TGI [6] was > 100 µM, the TGI [7] was > 100 µM and the TGI [8] was > 100 µM. The TGI [12] was > 100 µM, the TGI [9] was > 100 µM and the TGI [10] was > 100 µM.
Cc1nc2[nH]ncn2c(=O)c1CCCl was tested, and the TGI [1] was > 10 µM, the TGI [2] was > 10 µM and the TGI [3] was > 10 µM. For the same molecule, the TGI [4] was > 10 µM, the TGI [6] was > 10 µM and the TGI [7] was > 10 µM. For the same molecule, the TGI [8] was > 10 µM, the TGI [12] was > 10 µM and the TGI [9] was > 10 µM. For the same molecule, the TGI [10] was > 10 µM.
CCC(C)C1NC(=O)C2CCCN2C(=O)C(CC(C)C)OC(=O)CCNC(=O)C(C)N(C)C(=O)C(C(C)C)N(C)C1=O (configuration not stated) (cyclo([ξLac(3-iPr)]PI[NMeV][NMeA][βAla]); configuration not given here) was tested, and the TGI [1] was > 86.8 µM, the TGI [2] was 29.2 µM and the TGI [3] was 43.7 µM. The TGI [4] was 8.81 µM, the TGI [5] was > 100 µM and the TGI [11] was 41.8 µM. For the same molecule, the TGI [6] was > 71.6 µM, the TGI [7] was > 100 µM and the TGI [8] was > 100 µM. The TGI [12] was > 100 µM, the TGI [9] was > 17.9 µM and the TGI [10] was 17.3 µM.
Work on O=C1C=CC(=O)c2c(O)c(Br)c(Br)c(O)c21 yielded a TGI [1] of 35.5 µM, a TGI [2] of 25.7 µM and a TGI [3] of 9.89 µM. The TGI [4] was 46.6 µM, the TGI [5] was 15.8 µM and the TGI [11] was 8.25 µM. For the same molecule, the TGI [6] was 13.3 µM, the TGI [7] was 18.4 µM and the TGI [8] was 1.75 µM. It also gave a TGI [12] of 34.1 µM, a TGI [9] of 3.92 µM and a TGI [10] of 5.67 µM.
In the case of N#C/C(=C\c1ccc(Br)cc1)n1nnc2cc(Cl)c(Cl)cc21, the GI50 [1] is reported as 4.33 µM, the TGI [1] is reported as > 100 µM and the GI50 [2] is reported as 2.17 µM. For the same molecule, the TGI [2] was > 100 µM, the GI50 [3] was 2.18 µM and the TGI [3] was 5.18 µM. For the same molecule, the GI50 [4] was 2.08 µM, the TGI [4] was 4.86 µM and the GI50 [5] was 2.1 µM. For the same molecule, the TGI [5] was 5.29 µM, the GI50 [6] was 2.89 µM and the TGI [6] was > 100 µM. The GI50 [8] was 2.31 µM, the TGI [8] was > 100 µM and the GI50 [9] was 1.71 µM. For the same molecule, the TGI [9] was > 100 µM.
With Clc1ccc(C[P+]2(c3ccccc3)CCCCC2)cc1 the TGI [1] was > 100 µM, the TGI [2] was > 100 µM and the TGI [3] was > 100 µM. For the same molecule, the TGI [4] was > 100 µM, the TGI [5] was > 100 µM and the TGI [11] was 89.5 µM. For the same molecule, the TGI [6] was > 100 µM, the TGI [7] was > 100 µM and the TGI [8] was > 100 µM. For the same molecule, the TGI [12] was > 100 µM and the TGI [9] was > 100 µM.
In the case of O=C1c2ccccc2C(=O)c2c(Nc3cc4c5c(ccc6c7ccc8c9c(cc(Nc%10cccc%11c%10C(=O)c%10ccccc%10C%11=O)c(c3c56)c97)-c3ccccc3C8=O)C(=O)c3ccccc3-4)cccc21, the TGI [1] is reported as 51.1 µM, the TGI [2] is reported as > 100 µM and the TGI [3] is reported as > 100 µM. The TGI [4] was > 100 µM, the TGI [5] was > 100 µM and the TGI [11] was > 100 µM. For the same molecule, the TGI [6] was > 100 µM, the TGI [7] was > 100 µM and the TGI [8] was > 100 µM. For the same molecule, the TGI [10] was > 100 µM.
With CCN(CC)c1ccc2nc3ccc(N=Nc4c(O)ccc5ccccc45)cc3[n+](-c3ccccc3)c2c1 the TGI [1] was > 100 µM, the TGI [2] was > 100 µM and the TGI [3] was > 100 µM. The TGI [4] was > 100 µM, the TGI [5] was > 100 µM and the TGI [11] was > 100 µM. The TGI [6] was > 100 µM, the TGI [7] was > 100 µM and the TGI [8] was > 100 µM. The TGI [9] was > 100 µM and the TGI [10] was > 100 µM.
